Experimental data reported in patent US20260315552A1, “COMBINATION OF VITAMINS, 2'-FUCOSYLLACTOSE AND A PROBIOTIC FOR ENHANCING BONE GROWTH AND/OR BONE STRENGTH” (SOCIÉTÉ DES PRODUITS NESTLÉ S.A., priority 2023, published 2026).

Experiments:
[1] = test system: pre-osteoblastic cell line MC3T3-E1 subclone 4; assay: Osteoblast alkaline phosphatase (ALP) activity; type: cell-based; settings: 7 days of differentiation, without ascorbic acid; MK-7 3 μM, VitA 100 nM all-trans-retinoic acid, VitD 1 nM 1α,25-Dihydroxyvitamin D3; FIG. 1A
Protocol: (§1) (A) ALP activity after 7 days of differentiation (without ascorbic acid). (B) Osteocalcin mRNA levels after 21 days of differentiation (without ascorbic acid). (C) Osteocalcin mRNA levels after 28 days of differentiation (with ascorbic acid). Pos=positive control; Neg=negative control; MK-7=supplemented with 3 μM menaquinone-7; VitD=supplemented with 1 nM 1α,25-Dihydroxyvitamin D3; VitA=supplemented with 100 nM all-trans-retinoic acid.
ALP activity after 7 days of differentiation (without ascorbic acid). […]
The effect of SCFAs was further investigated. Three mixes of 75% acetate, 20% propionate, 5% butyrate were evaluated to mimic normal physiological conditions (20 μM SCFAs), physiological conditions following prebiotic supplementation (50 μM SCFAs), and physiological conditions following synbiotic supplementation (60 μM SCFAs). […]
After 7 days of differentiation, cells were then collected for alkaline phosphatase (ALP) activity measurement as described previously with minor modifications. […] Enzymatic reaction was monitored at 405 nm after 4-Nitrophenyl phosphate disodium salt hexahydrate addition. Michaelis-Menten kinetics were evaluated at 30° C. for 30 min. […] The activity value was normalized by protein content measured via the Pierce BCA Protein Assay Kit (ThermoFisher Scientific) according to the manufacturer's instructions.

[2] = test system: osteocalcin (Ocn) in pre-osteoblastic cell line MC3T3-E1 subclone 4; assay: Osteocalcin mRNA levels (qPCR); type: cell-based; settings: 21 days of differentiation, without ascorbic acid; MK-7 3 μM, VitA 100 nM, VitD 1 nM; FIG. 1B
Protocol: as §1
The pre-osteoblastic cell line MC3T3-E1 subclone 4 (CRL-2593) was purchased from ATCC (Manassas; Virginia, USA). Cells were maintained in growth medium (GM) composed of ascorbic acid-free αMEM (ThermoFisher Scientific), supplemented with 10% fetal calf serum (FCS, ThermoFisher Scientific) and 1% penicillin/streptomycin. All culture media were refreshed every 2-3 days. Cells were passaged with trypsin/EDTA solution at less than 80% confluence. To induce differentiation into osteoblasts, cells were seeded at 5×10^4 cells/cm^2 and grown to confluency in GM for 24 h. Then, the medium was switched to differentiation medium (DM) composed of GM supplemented with 10 mM β-glycerophosphate and treatment solutions of interest. Ascorbic acid 50 μg/ml was also added to the DM depending on the experiment.
MC3T3-E1 subclone 4 cells were differentiated for 21 days (in DM without ascorbic acid except for the positive control) or 28 days (in DM containing ascorbic acid). Cells were then collected for gene expression analysis. RNA was extracted using the RNeasy plus mini kit (Qiagen; Hilden, Germany) with the QIAcube (Qiagen,) according to the manufacturer's instructions. Briefly, cells were lysed in RLT buffer and spun in a QIAshredder column (Qiagen) before being processed by the QIAcube. RNA concentrations were measured using the DropSense96 (TRINEAN, Gentbrugge, Belgium).
cDNAs were synthetized using High-Capacity cDNA Reverse Transcription Kit (AppliedBiosystems; Waltham, Massachusetts, USA) according to the manufacturer's instructions. […] The relative gene expression was evaluated via the 2^-ΔCt method.

Row | SMILES | effect on ALP activity (marker of osteoblast differentiation) [1] | effect on osteocalcin expression [2]
1 | CC(C)=CCC/C(C)=C/CC/C(C)=C/CC/C(C)=C/CC/C(C)=C/CC/C(C)=C/CC/C(C)=C/CC1=C(C)C(=O)c2ccccc2C1=O [vitamin K2, menaquinone-7] | no significant effect | significant effect
2 | CC1=C(/C=C/C(C)=C/C=C/C(C)=C/C(=O)O)C(C)(C)CCC1 [vitamin A, all-trans-retinoic acid] | – | no significant effect
3 | C=C1/C(=C\C=C2/CCC[C@]3(C)[C@@H]([C@H](C)CCCC(C)(C)O)CC[C@@H]23)C[C@@H](O)C[C@@H]1O [vitamin D, 1α,25-Dihydroxyvitamin D3] | – | no significant effect
